Test results published in US20210116454A1, “METHODS FOR TREATING A HEMATOLOGICAL CANCER AND THE USE OF COMPANION BIOMARKERS FOR 2-(2,6-DIOXOPIPERIDIN-3-YL)-4-((2-FLUORO-4-((3-MORPHOLINOAZETIDIN-1-YL)METHYL)BENZYL)AMINO)ISOINDOLINE-1,3-DIONE” (CELGENE CORPORATION, priority 2019, published 2021).
Read-outs that look alike come from different tables or passages of the source.

How the values were obtained:
[1] = biological target: T1, Ikaros (Homo sapiens, UniProt Q13422+Q96SW2); experiment: ePL-tagged substrate degradation kinetics in DF15 cells (enantiomer comparison); type: cell-based; design: expressed in transfected cells; host or cells: DF15 cells; Ikaros Y-constant: scale not given here; conditions: for DC50: read-out: Ikaros EC50
Protocol: In a second assay, DF15 cell lines expressing ePL-tagged target protein substrates were used as a model system to monitor protein degradation at 0.75, 1, 1.5, 3, 4, and 24 hours over a concentration range from 1 pM to 10 μM. The proteins evaluated were Ikaros (FIG. 17), Aiolos, and ZFP91. Compound 1 and Compound 2 were both able to degrade the substrate proteins at all time points (Table 9). In a further assay, additional time points were included to monitor the effect of treatment with Compound 1 and Compound 2.
The depth of substrate protein degradation described by the Y-constant was also measured in this assay against a negative control luciferase inhibitor (CC1071297, Y-constant=0).

[2] = system: endothelial cells, T- and B-lymphocytes, coronary smooth muscle cells, and fibroblasts; experiment: BioMAP Diversity PLUS Panel, antiproliferative effects; type: cell-based, human
Protocol: The BioMAP Diversity PLUS Panel was assessed after treatment with Compound 1. The X-axis lists the quantitative protein-based biomarker readouts measured in each system. The Y-axis represents a log-transformed ratio of the biomarker readouts for the drug-treated sample (n=1) over vehicle controls (n≥6). The grey region around the Y-axis represents the 95% significance envelope generated from historical vehicle controls. Biomarker activities were annotated when 2 or more consecutive concentrations change in the same direction relative to vehicle controls, are outside of the significance envelope, and have at least one concentration with an effect size >20% (log 10 ratio >0.1). Antiproliferative effects are indicated by a thick grey arrow.
The activity of Compound 1 was profiled in a panel of human primary cell-based assays, modeling complex tissue and disease biology of organs (vasculature, immune system, skin, lung) and general tissue biology using the BioMAP System (DiscoveRx, Fremont, Calif.).
The BioMAP System consists of twelve primary human monoculture or co-culture systems in stimulated and non-stimulated control conditions (FIG. 4, panel A). When tested at 0.01, 0.1, 1, and 10 μM, Compound 1 mediated changes in key biomarker activities. […]

[3] = system: SU-DHL-2^CRBNWT cells; experiment: Western blot time- and concentration-response of endogenous substrates; type: cell-based; conditions: 10 and 100 nM, entire course of treatment
Description: However, Compound 1 had no activity in SU-DHL-2^CRBN−/− cells, indicating the requirement of cereblon for induction of apoptosis by Compound 1 in DLBCL (FIG. 5 C).

[4] = biological target: cereblon (CRBN) (Homo sapiens, UniProt Q96SW2); experiment: Cereblon binding TR-FRET ligand competition assay
Protocol: To investigate whether Compound 1 and its R-enantiomer Compound 2 could bind to cereblon, a short duration (10 to 20 minutes) ligand competition assay was used.

[5] = system: Peripheral blood mononuclear cells derived from four healthy donors; experiment: Viability of CD3-stimulated PBMCs (Viobility Fixable Dye, flow cytometry); type: cell-based
Protocol: To establish that this was due to the effect of the compound in promoting Ikaros degradation and not because of a lack of cell proliferation or viability of the CD3-stimulated PBMCs, the effect of Compound 1 on their viability was assessed by flow cytometry. […] Peripheral blood mononuclear cells derived from four healthy donors were exposed to Compound 1 at concentrations of 0.1, 1, 10, or 100 nM for 3, 4, or 7 days, and viability was measured by staining with Viobility™ Fixable Dye. […] The trend in cell viability continued through day 7, with Compound 1 treatment not effecting the viability of the PBMCs.

[6] = biological target: T1, Ikaros; experiment: Ikaros protein level by flow cytometry during ex vivo myeloid differentiation; type: cell-based
Description: Ikaros protein levels were monitored during periods of Compound 1 exposure and recovery. Ikaros levels were reduced during Compound 1 exposure and recovered following drug withdrawal in a concentration-dependent manner with no significant differences noted in association with different exposure schedules (FIG. 21; FIG. 22). Ikaros levels began returning to normal after at least 3 days following washout, predating full recovery of maturation of late-stage neutrophil precursors (FIG. 23). […] Accordingly, Ikaros levels in neutrophils can serve as a marker for response to Compound 1.
Ikaros protein level was analyzed by flow cytometry every two or three days. As shown in FIG. 21 and FIG. 22, Ikaros protein was degraded under both Compound 1 treatment schedules (14 days and 5 days) and its expression was restored after drug washout in a concentration dependent manner.

Compound: O=C1CC[C@H](N2C(=O)c3cccc(NCc4ccc(CN5CC(N6CCOCC6)C5)cc4F)c3C2=O)C(=O)N1 [Compound 1, (S)-2-(2,6-dioxopiperidin-3-yl)-4-((2-fluoro-4-((3-morpholinoazetidin-1-yl)methyl)benzyl)amino)isoindoline-1,3-dione]
- Ikaros Y-constant ([1]; 0.75 hours): 39.3
- DC50 ([1]; 0.75 hours): 1.25 nM
- Ikaros Y-constant ([1]; 1 hour): 27.5
- DC50 ([1]; 1 hour): 1.01 nM
- Ikaros Y-constant ([1]; 1.5 hours): 12.5
- DC50 ([1]; 1.5 hours): 0.96 nM
- Ikaros Y-constant ([1]; 3 hours): 8.6
- DC50 ([1]; 3 hours): 0.81 nM
- Ikaros Y-constant ([1]; 4 hours): 6.8
- DC50 ([1]; 4 hours): 0.99 nM
- Ikaros Y-constant ([1]; 24 hours): 2.6
- DC50 ([1]; 24 hours): 0.35 nM
- antiproliferative effects in BioMAP systems [2]: selectively antiproliferative
- Ikaros, Aiolos, and ZFP91 protein expression [3]: complete suppression
- higher binding affinity for CRBN compared to Compound 2 [4]: eleven-fold
- IC50 ([4]; 10 to 20 minutes, n=5): 860 ± 100 nM
- effect on PBMC viability ([5]; 0.1, 1, 10, or 100 nM for 3, 4, or 7 days): no significant effect
- viable PBMCs ([5]; day 3 and day 4, 0.1, 1, 10, or 100 nM): roughly 80%
- recovery of Ikaros protein ([6]; Day 19, all concentrations, after 14 days of treatment): complete recovery
- time after washout at which Ikaros levels began returning to normal ([6]; neutrophil precursors, following washout): at least 3 days
